Reference: patent US7718768B2, “Biologically active peptide [sequence]” (CMS Peptides Patent Holding Company Limited, priority 2001, dated 2010)
Marks after values point to notes of the source that are not given here. No end group written: not given here.

What was measured:
[1] = system: Masugi nephritis rat model; experiment: Masugi nephritis rat model; format: in vivo, Sprague Dawley (SD) rats
From the text: The anti-serum was then exuded and isolated. Whole blood was collected from 15 healthy SD rats. […] Treatment started on the day of induction. […] Adequate drinking water was supplied.

anti-SRBC antibody = experiment: Sheep Red Blood Cell (SRBC) hemolysis test, anti-SRBC antibody formation; format: in vivo, BALB/c mice; conditions: SRBC on day 12, IFN-γ and IL-2 groups 3×10^5 IU/kg/day, X ± SD
Method: Sheep red blood cells (SRBC) were prepared by collecting blood from cervical vein and put into a sterile flask with glass beads. The flask was shaken for 3 minutes and the blood then mixed with Alsever solution (glucose 2.05 g, NaCl 0.4 g, […] 0.8 g, adjust to 100 ml with distilled water) and stored at 4° C. Immediately before use, samples were centrifuged at 130 g, 5 minutes to collect the SRBC. The cells were washed two times by re-suspension and centrifugation in normal saline. Then the cell pellet was collected by centrifugation at 180 g for 10 minutes and re-suspended in saline to make the final working SRBC suspension, 2% (v/v).
Complement was prepared by adding 10 volumes of fresh Cavy serum into one volume centrifuge packed SRBC, and then gently shaking for 30 minutes at 4° C. The SRBC was removed by centrifugation at 200 g for 10 minutes. 10 volumes of normal saline were added to obtain the working complement solution.
The test substances were administered as described in section 1.1, plus intraperitoneal injection 0.2 ml SRBC per mouse on day 12. On the day after the last test substance administration (day 16), blood was collected from the eye canthus and left at room temperature for one hour for serum exudation. After centrifugation at 200 g for 10 minutes, the serum was diluted by 500 times with normal saline.
To 1 ml diluted mouse serum of each mouse, 0.5 ml SRBC suspension was added. Ice cold. Then 1 ml working complement solution was added and incubated at 37° C. water bath for 10 minutes. Reactions were terminated by ice cold. Samples were then centrifuged at 200 g for 10 minutes to obtain the supernatant.
To 1 ml of this supernatant, 3 ml Drabkin solution was added and left at room temperature for 10 minutes. OD540nm was obtained.
Reference OD540nm was obtained by mixing 0.25 ml SRBC suspension with Drabkin solution to 4 ml and placed at room temperature for 10 minutes before OD540nm was taken. Sample serum index=(OD540nm of test sample[…]reference OD540nm)×500 3. The Effect of Peptides on the Phagocytosis Function of Mononuclear Phagocyte and the Weight of Immune Organ^[8,9].

mononuclear phagocyte = experiment: carbon particle clearance test, phagocytotic activity of mononuclear phagocyte; format: in vivo, BALB/c mice; design: key: α = (cube root of K)×(body weight ÷ liver+spleen weight); conditions: peptide 5 μg/kg/day i.p. 15 days; IFN-γ and IL-2 groups 3×10^5 IU/kg/day; X ± SD
Method: On the next day after the last test substance administration (day 16), the mice were injected with […] body weight India ink (5 times dilution with normal saline) from the tail vein.
One minute and five minutes after Indian ink injection, 20 μl blood was obtained from the eye can thus with a heparinized tubing. The blood was mixed with 2 ml 0.1% w/v Na2CO3 and then OD680nm obtained. The outline clear index K was calculated by the following formula: K=(lgA1−lgA2)÷(t2−t1) Key: A1: OD680nm at first minute A2: OD680nm at fifth minute t2: 5 minutes […]
(§1) One day after the last test substance administration (day 16), the liver, spleen, and thymus gland were separated and blotted dry with filter paper and weighed. The phagocytosis index α was calculated as below: α=(^3√K)(W÷WLS) key: W: body weight WLS: weight of liver plus spleen Thymus gland index(%)=(thymus weight/body weight)×100% Spleen index(%)=(spleen weight/body weight)×100%

[2] = immunity organ weight test (thymus gland index, spleen index); format: in vivo, BALB/c mice; conditions: IFN-γ and IL-2 groups 3×10^5 IU/kg/day, X ± SD
Method: The above substances were all dissolved in 0.5 ml saline and injected intraperitoneal (i.p.) for 15 continuous days, once per day.
as §1

[3] = after three weeks of treatment, peptides 50 μg/kg/day i.p., hydrocortisone 3.3 mg/kg/day i.p.
[4] = peptide 0.5 μg/kg/day i.p. 15 days

With `C[C@]12CCC(=O)C=C1CC[C@@H]1[C@@H]2[C@@H](O)C[C@@]2(C)[C@H]1CC[C@]2(O)C(=O)CO` [hydrocortisone, Hydrocortisone, reference compound] the Serum creatinine level [1, 3] was 239 ± 107 µmol/L and the “growth rate of treated nephritis rats” value ([1]; peptides 50 μg/kg/day i.p., hydrocortisone 3.3 mg/kg/day i.p.) was “slower growth rate than normal”.
In the case of VGMGEKDSY [CMS018], the “anti-SRBC antibody formation (sample serum index)” value (anti-SRBC antibody; [4]) is reported as 3 ± 1* Unit, the “anti-SRBC antibody formation (sample serum index)” value (anti-SRBC antibody; peptide 500 μg/kg/day i.p. 15 days) is reported as 66 ± 16* Unit and the phagocytotic index (mononuclear phagocyte) is reported as 6.7 ± 1.2. The “weight of thymus gland (thymus gland index)” value (“weight … (thymus gland index)” for short) [2, 4] was 0.20 ± 0.03 %, the “weight … (thymus gland index)” value ([2]; peptide 5 μg/kg/day i.p. 15 days) was 0.24 ± 0.04*^@^ % and the “weight … (thymus gland index)” value ([2]; peptide 50 μg/kg/day i.p. 15 days) was 0.23 ± 0.02*^@^ %. The urine protein level ([1]; Week 1, 24 hours urine, peptides 50 μg/kg/day i.p., hydrocortisone 3.3 mg/kg/day i.p.) was 7.0 ± 3.7 mg, the urine protein level ([1]; Week 2, 24 hours urine, peptides 50 μg/kg/day i.p., hydrocortisone 3.3 mg/kg/day i.p. (halved after first week)) was 5.5 ± 7.9 mg and the Serum creatinine level [1, 3] was 67 ± 1 µmol/L. For the same compound, the spleen index [1, 3] was 3.3 ± 0.8 ×10^−3 and the “renal pathological microscopic examination” value ([1]; peptides 50 μg/kg/day i.p. 3 weeks, 6 heaviest kidneys per group) was “all pathological parameters of all rats were normal”.
